From ChEMBL document CHEMBL1201862, “PubChem BioAssay data set” (2004)
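Step 1: Grow cells in 96-well plates. Step 2: Expose to compound for 48 hours at 5 concentrations. Step 3: Interpolate endpoints linearly; if unreached, use highest concentration. GI50 marks 50% less growth.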 Calls of active or inactive are those of the source. Cut-off read from the data, not from the text of the source: active = GI50 up to about 1.1 µM and inactive = higher.

Key:
Test in all cases: NCI tumour cell line growth inhibition, 48 h
DU-145 = test system: DU-145
NCI-H460 = test system: NCI-H460
OVCAR-8 = test system: OVCAR-8
OVCAR-4 = test system: OVCAR-4
KM12 = test system: KM12
A498 = test system: A498
SNB-19 = test system: SNB-19
NCI-H522 = test system: NCI-H522
HCT-116 = test system: HCT-116
UACC-257 = test system: UACC-257
MOLT-4 = test system: MOLT-4
MDA-MB-231 = test system: MDA-MB-231
HCT-15 = test system: HCT-15
LOX IMVI = test system: LOX IMVI
SF-539 = test system: SF-539
SW-620 = test system: SW-620
SNB-75 = test system: SNB-75
SK-OV-3 = test system: SK-OV-3
HOP-92 = test system: HOP-92
K562 = test system: K562

Structure (SMILES)	GI50 (DU-145)	GI50 (NCI-H460)	GI50 (OVCAR-8)	GI50 (OVCAR-4)	GI50 (KM12)	GI50 (A498)	GI50 (SNB-19)	GI50 (NCI-H522)	GI50 (HCT-116)	GI50 (UACC-257)	GI50 (MOLT-4)	GI50 (MDA-MB-231)	GI50 (HCT-15)	GI50 (LOX IMVI)	GI50 (SF-539)	GI50 (SW-620)	GI50 (SNB-75)	GI50 (SK-OV-3)	GI50 (HOP-92)	GI50 (K562)
COc1nc(N)nc2nc[nH]c12	478 µM (inactive)	430 µM (inactive)	> 500 µM (inactive)	479 µM (inactive)	> 500 µM (inactive)	228 µM (inactive)	> 500 µM (inactive)	440 µM (inactive)	463 µM (inactive)	486 µM (inactive)	474 µM (inactive)	444 µM (inactive)	445 µM	381 µM (inactive)	495 µM (inactive)	> 500 µM (inactive)	208 µM (inactive)	129 µM (inactive)	235 µM (inactive)	> 500 µM (inactive)
Clc1ccc2c(c1)CC1C[N+]3=C(CCCCC3)C1=C2 (stereo unspecified)	> 100 µM (inactive)	33 µM (inactive)	28.3 µM (inactive)	54.8 µM (inactive)	50.5 µM (inactive)	18.3 µM (inactive)	51.8 µM (inactive)	38.8 µM (inactive)	> 100 µM (inactive)	28.8 µM (inactive)	> 100 µM (inactive)	33 µM (inactive)	> 100 µM	43.3 µM (inactive)		> 100 µM (inactive)	0.349 µM (active)	> 100 µM (inactive)	7.1 µM (inactive)	> 100 µM (inactive)
C1CCC2(CC1)O[C@@H]1[C@@H](O2)[C@@H](O[C@H]2O[C@@H]3COC4(CCCCC4)O[C@H]3[C@@H]3OC4(CCCCC4)O[C@@H]23)O[C@@H]2COC3(CCCCC3)O[C@@H]12	> 100 µM (inactive)		> 100 µM (inactive)	> 100 µM (inactive)	> 100 µM (inactive)	> 100 µM (inactive)	> 100 µM (inactive)	> 100 µM (inactive)	> 100 µM (inactive)	> 100 µM (inactive)	23.9 µM (inactive)	> 100 µM (inactive)		> 100 µM (inactive)	> 100 µM (inactive)	> 100 µM (inactive)	> 100 µM (inactive)	> 100 µM (inactive)	> 100 µM (inactive)	> 100 µM (inactive)
Cc1c(Cl)cccc1NC(=O)/C=C/c1ccccc1	> 100 µM (inactive)	> 100 µM (inactive)	38 µM (inactive)	> 100 µM (inactive)	77.8 µM (inactive)	> 100 µM (inactive)	45.6 µM (inactive)	> 100 µM (inactive)	> 100 µM (inactive)	> 100 µM (inactive)	> 100 µM (inactive)	17.7 µM (inactive)	> 100 µM	> 100 µM (inactive)	43 µM (inactive)	> 100 µM (inactive)	22.8 µM (inactive)	> 100 µM (inactive)	21 µM (inactive)	> 100 µM (inactive)
COc1ccc([C@H]2C=[N+]([O-])O[C@H](OC3CCCC3)[C@@H]2OC(C)=O)cc1OC	29.3 µM (inactive)	43.9 µM (inactive)	20.7 µM (inactive)	33.6 µM (inactive)	26.4 µM (inactive)	> 100 µM (inactive)	> 100 µM (inactive)	5.66 µM (inactive)		19.7 µM (inactive)	32.6 µM (inactive)	32.7 µM (inactive)	29.2 µM	15.4 µM (inactive)	16.4 µM (inactive)	19.8 µM (inactive)	28.4 µM (inactive)	> 100 µM (inactive)	14.3 µM (inactive)	39.3 µM (inactive)
Fc1c(F)c(F)c(CSc2nc3ccccc3[nH]2)c(F)c1F	> 100 µM (inactive)	> 100 µM (inactive)	> 100 µM (inactive)	> 100 µM (inactive)	> 100 µM (inactive)	> 100 µM (inactive)	> 100 µM (inactive)	> 100 µM (inactive)	> 100 µM (inactive)	> 100 µM (inactive)	> 100 µM (inactive)	> 100 µM (inactive)	> 100 µM	> 100 µM (inactive)	> 100 µM (inactive)	> 100 µM (inactive)	> 100 µM (inactive)	> 100 µM (inactive)	47 µM (inactive)	> 100 µM (inactive)
